Activity calls are given as the source filed them.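 Rule for the calls: active = area under the green fluorescent protein level over time curve over 15% above untreated cells; inactive = the rest.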 Peptide text beside a SMILES is read from it. * marks the point of attachment. Cbz = O=C(OCc1ccccc1)*
Test system: S. cerevisiae Sic1-GFP degradation, flow cytometry time course
Assay: degradation of ubiquitination-site mutant Sic1-GFP in yeast, confirmation, mechanism study for 26S proteasome disassembly project, flow cytometry, Sic1MUS mutant, S. cerevisiae (AID 1312)

Row | Compound | outcome
1 | CC(C)C[C@@H](C=O)NC(=O)[C@H](CC(C)C)NC(=O)[C@H](CC(C)C)NC(=O)OCc1ccccc1 (Cbz-Leu-Leu-Leu-aldehyde) | inactive
2 | CC(=O)N1C(=O)C(=C2C=C(C)OC(C)=C2)c2ccccc21 | active; degradation inhibitor

Source: PubChem BioAssay AID1312 (NMMLSC, 2008)
